≈ marks a conversion by molar mass, not a printed value. Where two headings read alike, the source gives them in different places. Each block holds one compound with its values, some of them ahead of it.
Assays:
S. aureus NRS100 (Mec^R) = test: MIC against S. aureus NRS100 (Table 14); format: cell-based, Staphylococcus aureus; settings: for MIC: compounds dissolved in DMSO or 1% sodium carbonate
Protocol: The recited compounds were dissolved in DMSO or in 1% sodium carbonate and transferred into micro titer plate to final concentration of 1000 μg/mL.

S. aureus NRS11 (Mec^S) = test: MIC against S. aureus NRS11 (Table 13); format: cell-based, Staphylococcus aureus; settings: for MIC: compounds dissolved in DMSO or 1% sodium carbonate
Protocol: All recited compounds were dissolved in DMSO or in 1% sodium carbonate and transferred to micro titer plates to final concentrations of 1000 μg/mL.

[1] = target: OXA-10 (class D β-lactamase) (Pseudomonas aeruginosa, UniProt P14489); test: β-Lactamase assay (nitrocefin colour change), OXA-10; format: biochemical; settings: for OXA-10: Table 10, class symbols x/xx/xxx, key not given
OXA-10 (class D β-lactamase), sequence (P14489 20-266, species assumed): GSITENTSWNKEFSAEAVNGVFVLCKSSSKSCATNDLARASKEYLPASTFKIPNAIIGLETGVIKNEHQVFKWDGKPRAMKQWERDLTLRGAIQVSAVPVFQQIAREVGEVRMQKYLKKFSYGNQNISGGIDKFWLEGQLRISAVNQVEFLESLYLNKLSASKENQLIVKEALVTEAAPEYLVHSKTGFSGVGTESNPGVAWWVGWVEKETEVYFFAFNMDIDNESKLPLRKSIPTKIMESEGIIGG
Protocol: (§1) β-Lactamase Assays (TEM-1, P99, and OXA-10): The activity of the compounds of the invention (inhibitors) toward β-lactamases was evaluated using 96 well plates. The reaction mixture included 10 mM sodium phosphate, pH 7.0, 150 mM sodium chloride, 0.01% Triton X-100, 100 μM nitrocefin, 10 nM of β-lactamases (class A: TEM-1; class C: P99, or class D: OXA-10), and variable concentrations of the inhibitors in a total volume of 100 μL. β-Lactamases were pre-incubated with the compounds at room temperature for 5 minutes, and the assay was initiated by the addition of nitrocefin. The inhibition of the enzyme activity by the compounds was determined by monitoring color change (from yellow to red) of nitrocefin after 20 minutes. Stock solutions of the compounds were prepared in dimethyl sulfoxide (DMSO). No more than 5% DMSO was present in assays, unless noted otherwise. B1aR Assay: The surface domain of B1aR (1 μM) was added to each inhibitor (at various concentrations) in 100 mM sodium phosphate, 50 mM sodium bicarbonate, at pH 7.0. The reaction mixtures were incubated at room temperature for 20 minutes. BOCILLIN FL, a fluorogenic ligand, was added to a concentration of 20 μM in a final volume of 20 μL. The mixtures were incubated at 37° C. for 5 minutes, at which point the reactions were quenched by the addition of 15 μL of the SDS sample buffer (125 mM Tris, 4% SDS, 20% glycerol, 2% 2-mercaptoethanol, pH 6.8), and were boiled for 4 minutes. The samples were loaded onto 15% SDS-PAGE, the gel was developed and scanned using a Storm 840® Fluorimager. The fluorescent bands of BOCILLIN FL-labeled B1aR^S were analyzed by Image Quant 5.2 software. PBP2 Assay: The PBP2 assay was performed according to the methods of Villegas-Esterada et al. (J. Am. Chem. Soc. 2008, 130, 9212-9213).

[2] = target: TEM-1 (class A β-lactamase) (Escherichia coli, UniProt P62593); test: β-Lactamase assay (nitrocefin colour change), TEM-1; format: biochemical; settings: for TEM-1: Table 10, class symbols x/xx/xxx, key not given
TEM-1 (class A β-lactamase), sequence (P62593 24-286 limits assumed): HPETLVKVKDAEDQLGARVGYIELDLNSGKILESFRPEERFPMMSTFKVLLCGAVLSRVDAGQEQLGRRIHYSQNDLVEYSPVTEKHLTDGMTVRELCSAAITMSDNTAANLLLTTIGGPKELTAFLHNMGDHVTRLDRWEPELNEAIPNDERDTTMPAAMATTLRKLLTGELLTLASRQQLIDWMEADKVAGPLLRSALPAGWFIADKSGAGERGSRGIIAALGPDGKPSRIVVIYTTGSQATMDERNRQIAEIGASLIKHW
Protocol: as §1

[3] = target: P99 (class C β-lactamase) (Enterobacter cloacae, UniProt P05364); test: β-Lactamase assay (nitrocefin colour change), P99; format: biochemical; settings: for P99: Table 10, class symbols x/xx/xxx, key not given
P99 (class C β-lactamase), sequence (P05364 21-381): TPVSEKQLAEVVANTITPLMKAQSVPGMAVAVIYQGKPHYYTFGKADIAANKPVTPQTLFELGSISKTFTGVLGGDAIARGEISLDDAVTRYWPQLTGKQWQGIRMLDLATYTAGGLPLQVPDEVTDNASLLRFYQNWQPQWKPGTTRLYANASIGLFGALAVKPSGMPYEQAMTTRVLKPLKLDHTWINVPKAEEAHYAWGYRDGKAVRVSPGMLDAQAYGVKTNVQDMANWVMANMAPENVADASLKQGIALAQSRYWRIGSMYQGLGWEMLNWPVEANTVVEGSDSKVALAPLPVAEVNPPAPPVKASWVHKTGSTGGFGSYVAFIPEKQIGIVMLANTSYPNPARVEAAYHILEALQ
Protocol: as §1

[4] = Staphylococcus aureus, read-out: MIC

- MIC (S. aureus NRS100 (Mec^R)): 2,000 μg/mL
- MIC (S. aureus NRS11 (Mec^S)): 2,000 μg/mL
Compound: CC(C)C[C@@H](C(=O)O)C(C(=O)O)C(=O)OC(C)(C)C (stereo partly shown) [Compound 330]

- MIC (S. aureus NRS100 (Mec^R); [4]): > 2000 µg/mL
- MIC (S. aureus NRS11 (Mec^S); [4]): > 2000 µg/mL
Compound: CCCCCCCCOc1ccc(NC(=O)c2ccccc2C(=O)O)c[n+]1[O-] [Compound 357]

- MIC (S. aureus NRS100 (Mec^R)): 500 µg/mL (≈ 1020 µM)
- MIC (S. aureus NRS11 (Mec^S)): 500 µg/mL (≈ 1020 µM)
Compound: O=C(O)c1c(F)c(F)c(F)c(F)c1C(=O)Nc1ccc(OCC(O)COCC2CC2)c(Cl)c1 (stereo not shown) [Compound 354]

Compound: O=C(O)c1c(Br)c(Br)c(Br)c(Br)c1C(=O)Nc1ccc(Cl)c(C(F)(F)F)c1 [Compound 89]
- OXA-10 [1]: xxx
- TEM-1 [2]: xx
- P99 [3]: xxx

- OXA-10 [1]: xxx
Compound: CCCCCCCCOc1ccc(N(C)C(=O)c2c(Br)c(Br)c(Br)c(Br)c2C(=O)O)cc1 [Compound 307]

- OXA-10 [1]: xx
Compound: O=C(O)c1c(Cl)c(Cl)c(Cl)c(Cl)c1C(=O)Nc1ccc(CO)cc1 [Compound 254]

Compound: O=C(O)c1c(Cl)c(Cl)c(Cl)c(Cl)c1C(=O)Nc1cccc(Oc2ccccc2)c1 [Compound 268]
- TEM-1 [2]: xxx
- P99 [3]: xx

Compound: O=C(O)c1c(Cl)c(Cl)c(Cl)c(Cl)c1C(=O)Nc1ccc(OCc2cccc(C(F)(F)F)c2)c(Cl)c1 [Compound 389]
- OXA-10 [1]: xxx
- IC50 ([1]; nitrocefin 100 μM, 10 nM enzyme, 5 min pre-incubation, read-out: IC50s OXA-10): 44.2 ± 3.4 µM
- MIC (S. aureus NRS100 (Mec^R); [4]): < 8 µg/mL
- inhibitory activity (in words) (S. aureus NRS100 (Mec^R); Table 14): significant inhibitory activity
- IC50 [2]: 4.5 ± 0.4 µM
- TEM-1 [2]: xxx
- MIC (S. aureus NRS11 (Mec^S); [4]): < 8 µg/mL
- inhibitory properties (in words) (S. aureus NRS11 (Mec^S); Table 13): significant inhibitory properties
- P99 [3]: xxx
- IC50 ([3]; nitrocefin 100 μM, 10 nM enzyme, 5 min pre-incubation, read-out: IC50s P99): 20.2 ± 3 µM

- MIC (S. aureus NRS100 (Mec^R); [4]): 1000 µg/mL (≈ 2180 µM)
- MIC (S. aureus NRS11 (Mec^S); [4]): 1000 µg/mL (≈ 2180 µM)
Compound: CCCCCCCCOc1ccc(NC(=O)c2c(F)c(F)c(F)c(F)c2C(=O)O)c[n+]1[O-] [Compound 359]

- OXA-10 [1]: xx
Compound: NC(=O)C1=C(C(=O)O)SCCS1 [Compound 120]

Compound: O=C1C2=C(SCCS2)C(=O)N1C(CO)[C@H](O)c1ccccc1 (stereo partly shown) [Compound 138]
- TEM-1 [2]: xxx
- P99 [3]: xxx

Compound: CCCCCCCCOc1ccc(NC(=O)c2c(Br)c(Br)c(Br)c(Br)c2C(=O)O)c[n+]1[O-] [Compound 360]
- OXA-10 [1]: xxx
- TEM-1 [2]: xx

- MIC (S. aureus NRS100 (Mec^R)): 2,000 μg/mL
- MIC (S. aureus NRS11 (Mec^S)): 2,000 μg/mL
Compound: CCCCOC(=O)c1ccc(NC(=O)N(C)c2ccccc2C(=O)O)cc1 [Compound 326]

Compound: O=C(O)c1c(Br)c(Br)c(Br)c(Br)c1C(=O)Nc1cccc(C(F)(F)F)c1 [Compound 196]
- TEM-1 [2]: xx
- P99 [3]: xx

- MIC (S. aureus NRS100 (Mec^R); [4]): 2000 µg/mL (≈ 5860 µM)
- MIC (S. aureus NRS11 (Mec^S); [4]): 2000 µg/mL (≈ 5860 µM)
Compound: CCCCOC(=O)c1ccc(NC(=O)c2ccccc2C(=O)O)cc1 [Compound 331]

- MIC (S. aureus NRS100 (Mec^R)): 2,000 μg/mL
- MIC (S. aureus NRS11 (Mec^S)): 2,000 μg/mL
Compound: CCCCOC(=O)c1ccc(NC(=O)C2CCC(C)CC2C(=O)O)cc1 (stereo not shown) [Compound 337]

- MIC (S. aureus NRS100 (Mec^R)): >2,000 μg/mL
- MIC (S. aureus NRS11 (Mec^S)): >2,000 μg/mL
Compound: O=C(O)c1c(F)c(F)c(F)c(F)c1C(=O)Nc1ccc(OCc2ccccc2)nc1 [Compound 363]

- MIC (S. aureus NRS100 (Mec^R); [4]): 500 µg/mL (≈ 723 µM)
- MIC (S. aureus NRS11 (Mec^S); [4]): 500 µg/mL (≈ 723 µM)
Compound: COCCOCCOc1ccc(NC(=O)c2c(Br)c(Br)c(Br)c(Br)c2C(=O)O)c[n+]1[O-] [Compound 410]

- OXA-10 [1]: xxx
Compound: CCCCCCCCOc1ccc(NC(=O)c2c(Cl)c(Cl)c(Cl)c(Cl)c2C(=O)O)c[n+]1[O-] [Compound 358]

Compound: O=C(O)c1c(F)c(F)c(F)c(F)c1C(=O)Nc1ccc(OCc2cccc(C(F)(F)F)c2)c(Cl)c1 [Compound 388]
- OXA-10 [1]: xx
- MIC (S. aureus NRS100 (Mec^R); [4]): 128 µg/mL (≈ 245 µM)
- TEM-1 [2]: xx
- MIC (S. aureus NRS11 (Mec^S); [4]): 128 µg/mL (≈ 245 µM)

- MIC (S. aureus NRS100 (Mec^R)): 500 µg/mL (≈ 1130 µM)
- MIC (S. aureus NRS11 (Mec^S)): 500 µg/mL (≈ 1130 µM)
Compound: CC(Oc1ccc(NC(=O)c2c(C(=O)O)cccc2[N+](=O)[O-])cc1Cl)c1ccccc1 (stereo not shown) [Compound 391]

- MIC (S. aureus NRS100 (Mec^R); [4]): 256 µg/mL (≈ 691 µM)
- MIC (S. aureus NRS11 (Mec^S); [4]): 256 µg/mL (≈ 691 µM)
Compound: CCCCCCCCOc1ccc(NC(=O)c2ccccc2C(=O)O)cn1 [Compound 343]

- MIC (S. aureus NRS100 (Mec^R); [4]): > 250 µg/mL
Compound: O=C(O)c1ccncc1C(=O)Nc1ccc(OCc2cccc(OC(F)(F)F)c2)c(Cl)c1 [Compound 424]

Compound: O=C(O)c1c(Cl)c(Cl)c(Cl)c(Cl)c1C(=O)Nc1ccc(Cl)c(C(F)(F)F)c1 [Compound 258]
- OXA-10 [1]: xx
- TEM-1 [2]: xxx
- P99 [3]: xx
